Drawing on patent US20150352108A1, “AMINO-PYRIMIDINE COMPOUNDS AS INHIBITORS OF TBK1 AND/OR IKK EPSILON” (Alzheimer's Institute of America, priority 2009, published 2015), this text covers IC50 for 17 molecules.

Read-outs that look alike come from different tables or passages of the source. Bounds are passed on as bounds.

One test deals with T1, IKKε (Homo sapiens, UniProt Q14164).
T1 construct: His-tag; made in house; host or cells: Sf9 insect cells
T1 sequence (Q14164 1-716): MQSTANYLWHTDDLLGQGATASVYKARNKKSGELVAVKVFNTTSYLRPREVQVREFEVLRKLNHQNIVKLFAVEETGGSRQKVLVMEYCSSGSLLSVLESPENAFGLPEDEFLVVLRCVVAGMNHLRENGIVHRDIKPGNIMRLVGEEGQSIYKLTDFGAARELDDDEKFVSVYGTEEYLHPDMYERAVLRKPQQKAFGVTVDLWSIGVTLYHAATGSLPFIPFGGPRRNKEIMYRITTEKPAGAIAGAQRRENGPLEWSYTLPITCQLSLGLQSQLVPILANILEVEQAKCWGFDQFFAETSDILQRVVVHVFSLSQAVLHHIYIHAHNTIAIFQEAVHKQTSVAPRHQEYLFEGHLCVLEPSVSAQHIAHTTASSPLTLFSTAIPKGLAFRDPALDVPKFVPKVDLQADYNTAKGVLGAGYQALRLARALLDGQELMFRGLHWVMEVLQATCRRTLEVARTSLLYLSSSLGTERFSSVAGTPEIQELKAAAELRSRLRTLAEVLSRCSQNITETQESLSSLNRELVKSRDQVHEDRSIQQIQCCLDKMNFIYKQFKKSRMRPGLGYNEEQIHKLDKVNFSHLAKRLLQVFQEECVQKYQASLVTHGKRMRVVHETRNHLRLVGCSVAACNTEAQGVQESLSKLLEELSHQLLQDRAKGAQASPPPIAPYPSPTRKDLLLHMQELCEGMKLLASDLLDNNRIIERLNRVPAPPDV
The test can be described thus: In-vitro IKKε kinase assay ([γ33]ATP filter-plate). The class given is biochemical. The method in brief:
(§1)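 Phosphorylation of casein or myelin basic protein was counted by P-81 filter capture after 30-45 min reactions stopped with phosphoric acid, with counts normalized to DMSO after background subtraction. ATP was twice Km: 60 μM for TBK1 and 32 μM for IKKε, plus [γ33]ATP. Sf9-expressed His-tag enzymes were used at normal/sensitized levels of 0.1/0.02 μg/ml (TBK1) and 0.1/0.015 μg/ml (IKKε).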

Test [1] relates to IKKε-mediated phosphorylation of IRF3. The test can be described thus: In-situ phosphorylation of IRF3 (pIRF3 Ser396 ELISA) in HEK293T cells cotransfected with IRF3 and IKKε. The class given is cell-based. The following applies: Homo sapiens, HEK-293T. The method in brief:
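Cells for the IRF7 Western blots carried IRF7 and TBK1 plasmids, were seeded at 150,000/well, exposed to compound overnight and probed for pSer477/Ser479 IRF7. The ELISA readout used IRF3 + IKKε-cotransfected HEK293T at 20,000/well with 20 h treatment, quantifying pSer396 IRF3 relative to DMSO, plus a parallel CellTiter-Glo viability check.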

For another test, the target named is T2, TBK1 (Homo sapiens, UniProt Q9UHD2).
T2 construct: His-tag; made in house; host or cells: Sf9 insect cells
T2 sequence (Q9UHD2 1-729): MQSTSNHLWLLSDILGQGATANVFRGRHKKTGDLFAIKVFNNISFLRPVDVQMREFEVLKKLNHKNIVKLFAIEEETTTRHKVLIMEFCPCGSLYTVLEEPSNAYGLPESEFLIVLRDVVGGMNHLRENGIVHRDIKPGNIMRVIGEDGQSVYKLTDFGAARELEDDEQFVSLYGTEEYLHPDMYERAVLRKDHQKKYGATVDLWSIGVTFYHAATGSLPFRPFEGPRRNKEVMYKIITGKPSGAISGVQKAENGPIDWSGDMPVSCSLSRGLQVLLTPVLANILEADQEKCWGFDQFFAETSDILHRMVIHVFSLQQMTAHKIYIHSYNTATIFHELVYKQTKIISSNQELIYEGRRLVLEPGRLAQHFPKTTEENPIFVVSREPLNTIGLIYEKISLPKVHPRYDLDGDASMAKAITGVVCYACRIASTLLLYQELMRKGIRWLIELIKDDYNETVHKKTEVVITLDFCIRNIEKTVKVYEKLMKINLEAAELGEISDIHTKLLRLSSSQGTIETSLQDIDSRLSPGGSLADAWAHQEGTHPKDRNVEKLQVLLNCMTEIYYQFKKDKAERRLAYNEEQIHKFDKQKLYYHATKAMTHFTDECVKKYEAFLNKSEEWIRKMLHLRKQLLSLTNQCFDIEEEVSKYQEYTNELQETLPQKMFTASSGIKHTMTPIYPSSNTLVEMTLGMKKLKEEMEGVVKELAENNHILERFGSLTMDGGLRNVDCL
The test can be described thus: In-vitro TBK1 kinase assay ([γ33]ATP filter-plate). The test is classed as biochemical. A digest of the protocol:
as §1

Setting [2] is: text bins, read-out: IC50 for inhibition of the kinase activity of IKKε.
[3] abbreviates: HEK293T cells, 20 hours, text bins, read-out: IC50 for inhibition of the in-situ IKKε-mediated phosphorylation of IRF3.
The mark [4] stands for this setting: text bins, read-out: IC50 for inhibition of the kinase activity of TBK1.
Setting [5] is: HEK293T cells in culture, Table 3, read-out: pIRF3 ELISA IC50.

For `COc1cc(Nc2nccc(-c3ccc(OC4CCOCC4)c(C#N)c3)n2)ccc1OCCOCCNS(=O)(=O)N1CCN(C)CC1` [Example 27, N-(2-{2-[4-({4-[3-cyano-4-(tetrahydro-2H-pyran-4-yloxy)phenyl]pyrimidin-2-yl}amino)-2-methoxyphenoxy]ethoxy}ethyl)-4-methylpiperazine-1-sulfonamide], the IC50 on IKKε (setting [2]) is below 5 nM; in test [1] (setting [3]) it was 250 to 500 nM; on TBK1 (setting [4]), below 10 nM.

Regarding `CCN(CC)CCOc1ccc(Nc2nccc(-c3ccc(OC4CCOCC4)c(C#N)c3)n2)cc1OC` [compound 530], the results for the IC50 (at IKKε (setting [2]); in test [1] (setting [3]); at TBK1 (setting [4])) were below 5 nM, below 100 nM and below 10 nM, respectively.

In the case of `COc1cc(Nc2nccc(-c3ccc(NC(=O)C(C)C)c(C#N)c3)n2)ccc1N1CCOCC1` [Example 75, N-[2-cyano-4-(2-{[3-methoxy-4-(morpholin-4-yl)phenyl]amino}pyrimidin-4-yl)phenyl]-2-methylpropanamide], the half-inhibitory concentration (IC50) at IKKε (setting [2]) is below 5 nM; in test [1] (setting [3]) it was 250 to 500 nM; at TBK1 (setting [4]) it was below 10 nM.

On to `COc1cc(Nc2nccc(-c3ccc(OC4CCOCC4)c(C#N)c3)n2)ccc1S(=O)(=O)N1CCN(C)CC1` [Example 114, 5-[2-({3-methoxy-4-[(4-methylpiperazin-1-yl)sulfonyl]phenyl}amino)pyrimidin-4-yl]-2-(tetrahydro-2H-pyran-4-yloxy)benzonitrile], for which the IC50 on IKKε (setting [2]) is below 5 nM; in test [1] (setting [3]) it was below 100 nM; at TBK1 (setting [4]), below 10 nM.

As for `COC1CN(Cc2ccc(Nc3nccc(-c4ccc(OC5CCOCC5)c(C#N)c4)n3)cc2)C1` [compound 487], the results for the IC50 (at IKKε (setting [2]); in test [1] (setting [3]); on TBK1 (setting [4])) were below 5 nM, below 100 nM and below 10 nM, respectively.

Turning to `Cc1ccc(Nc2nccc(-c3ccc(OC4CCOCC4)c(C#N)c3)n2)cc1OCCCN1CCOCC1` [compound 517, 5-[2-({4-Methyl-3-[3-(morpholin-4-yl)propoxy]phenyl}amino)pyrimidin-4-yl]-2-(tetrahydro-2H-pyran-4-yloxy)benzonitrile], the concentration for half-maximal inhibition (IC50) on IKKε (setting [2]) is below 5 nM; in test [1] (setting [3]), below 100 nM; at TBK1 (setting [4]) it was below 10 nM.

As for `COc1cc(Nc2nccc(-c3ccc(OC4CCN(C(=O)[C@H](C)O)CC4)c(C#N)c3)n2)ccc1N1CCOCC1` [Example 208, 2-({1-[(2S)-2-hydroxypropanoyl]piperidin-4-yl}oxy)-5-(2-{[3-methoxy-4-(morpholin-4-yl)phenyl]amino}pyrimidin-4-yl)benzonitrile], the IC50 on IKKε (setting [2]) is below 5 nM; in test [1] (setting [3]), 250 to 500 nM; on TBK1 (setting [4]) it was below 10 nM.

In the case of `CCOC(=O)C(C)NCc1ccc(Nc2nccc(-c3ccc(OC4CCOCC4)c(C#N)c3)n2)cc1` (stereo not drawn) [compound 489, ethyl N-[4-({4-[3-cyano-4-(tetrahydro-2H-pyran-4-yloxy)phenyl]pyrimidin-2-yl}amino)benzyl] alaninate], the IC50 on IKKε (setting [2]) was below 5 nM; in test [1] (setting [3]), 100 to 250 nM; on TBK1 (setting [4]), below 10 nM.

On to `CC1(COc2ccc(-c3ccnc(Nc4ccc(N5CCOCC5)cc4)n3)cc2C#N)COC1` [compound 444, 2-[(3-Methyloxetan-3-yl)methoxy]-5-(2-{[4-(morpholin-4-yl)phenyl]amino}pyrimidin-4-yl)benzonitrile], for which the IC50 at IKKε (setting [2]) was below 5 nM; in test [1] (setting [3]), below 100 nM; on TBK1 (setting [4]) it was below 10 nM.

For the molecule `CNS(=O)(=O)Cc1ccc(Nc2nccc(-c3ccc(NC(=O)C(C)C)c(C#N)c3)n2)cc1` [compound 414, N-{2-cyano-4-[2-({4-[(methylsulfamoyl)methyl]phenyl}amino)pyrimidin-4-yl]phenyl}-2-methylpropanamide], the half-maximal inhibitory concentration (IC50) on IKKε (setting [2]) lay within 5 to 50 nM; in test [1] (setting [3]), 100 to 250 nM; at TBK1 (setting [4]) it was 10 to 100 nM.

Regarding `N#Cc1cc(-c2ccnc(Nc3ccc(CS(=O)(=O)NCCCN4CCOCC4)cc3)n2)ccc1OC1CCOCC1` [compound 405, 1-[4-({4-[3-Cyano-4-(tetrahydro-2H-pyran-4-yloxy)phenyl]pyrimidin-2-yl}amino)phenyl]-N-[3-(morpholin-4-yl)propyl] methanesulfonamide], the values for the IC50 (at IKKε (setting [2]); in test [1] (setting [3]); at TBK1 (setting [4])) were below 5 nM, below 100 nM and below 10 nM, respectively.

`COc1cc(Nc2nccc(-c3ccc(OC4CCOCC4)c(C#N)c3)n2)ccc1C(=O)NCCN(C)C` [Example 2, 4-({4-[3-cyano-4-(tetrahydero-2H-pyran-4-yloxy)phenyl]pyrimidin-2-yl}amino)-N-[2-(dimethylamino)ethyl]-2-methoxybenzamide]: the IC50 is 1.1 nM at IKKε (Table 3, read-out: IKKε IC50); below 5 nM on IKKε (setting [2]); 71.9 nM in test [1] (setting [5]); below 100 nM in test [1] (setting [3]); 0.4 nM at TBK1 (Table 3, read-out: TBK1 IC50); below 10 nM at TBK1 (setting [4]).

As for `CC(C)N1CCN(C(=O)Cc2cccc(Nc3nccc(-c4ccc(OC5CCOCC5)c(C#N)c4)n3)c2)CC1` [compound 408, 5-{2-[(3-{2-Oxo-2-[4-(propan-2-yl)piperazin-1-yl]ethyl}phenyl)amino]pyrimidin-4-yl}-2-(tetrahydro-2H-pyran-4-yloxy)benzonitrile], the results for the IC50 (at IKKε (setting [2]); in test [1] (setting [3]); at TBK1 (setting [4])) were 5 to 50 nM, below 100 nM and below 10 nM, respectively.

`COc1cc(Nc2nccc(-c3ccc(NC(=O)C(C)C)c(C#N)c3)n2)ccc1OCCCN1CCOCC1` [compound 434, N-{2-cyano-4-[2-({3-methoxy-4-[3-(morpholin-4-yl)propoxy]phenyl}amino)pyrimidin-4-yl]phenyl}-2-methylpropanamide]: the 50% inhibitory concentration (IC50) at IKKε (setting [2]) was 5 to 50 nM; in test [1] (setting [3]), below 100 nM; on TBK1 (setting [4]), below 10 nM.

`COc1cc(Nc2nccc(-c3ccc(OC4CCOCC4)c(C#N)c3)n2)ccc1C(=O)N1CC(N2CCOCC2)C1` [compound 475, 5-{2-[(3-Methoxy-4-{[3-(morpholin-4-yl)azetidin-1-yl]carbonyl}phenyl)amino]pyrimidin-4-yl}-2-(tetrahydro-2H-pyran-4-yloxy)benzonitrile]: the IC50 was below 5 nM at IKKε (setting [2]), below 100 nM in test [1] (setting [3]) and below 10 nM on TBK1 (setting [4]).

Take `CN1CCN(CCNc2cccc(Nc3nccc(-c4ccc(OC5CCOCC5)c(C#N)c4)n3)c2)CC1` [compound 616, 5-{2-[(3-{[2-(4-Methylpiperazin-1-yl)ethyl]amino}phenyl)amino]pyrimidin-4-yl}-2-(tetrahydro-2H-pyran-4-yloxy)benzonitrile]: the IC50 was 1.1 nM on IKKε (Table 3, read-out: IKKε IC50); below 5 nM at IKKε (setting [2]); 98.5 nM in test [1] (setting [5]); below 100 nM in test [1] (setting [3]); 1.6 nM at TBK1 (Table 3, read-out: TBK1 IC50); below 10 nM on TBK1 (setting [4]).

In the case of `COc1cc(Nc2nccc(-c3ccc(OC4CCOCC4)c(C#N)c3)n2)ccc1C(=O)NCCN1CCCC1` [compound 504, 4-({4-[3-cyano-4-(tetrahydro-2H-pyran-4-yloxy)phenyl]pyrimidin-2-yl}amino)-2-methoxy-N-[2-(pyrrolidin-1-yl)ethyl]benzamide], the IC50 on IKKε (setting [2]) is below 5 nM; in test [1] (setting [3]) it was below 100 nM; on TBK1 (setting [4]), below 10 nM.
